We go through 3 molecules from patent US10933008B1, “Silicon-based cannabidiol derivatives and compositions thereof” (Gelest Technologies, Inc., priority 2015, dated 2021).

Data set [1] can be described thus: Solubility study in common oils, silicones and water. It counts as physicochemical. The text has this:
It may be concluded that the CBD isolate was soluble in all oils and insoluble in all silicones and water. The CBD derivatives were insoluble in water and soluble in both oils and silicones (heating was required for the derivative of Example 1). […] Thus, the presence of the silicon-containing groups increased the solubility of CBD in all silicones tested.

Data set [2] in a line: Release of CBD from the infused silicone elastomer on water washes, TLC analysis. The data set is classed as physicochemical. To be noted: hydrolyzed sample and water washes compared to CBD isolate. The procedure:
A solution was prepared by adding 5 g of the trisiloxanyl-cannabidiol product (IV) prepared in Example 3 and 5 g of n-propylheptamethyltrisiloxane (commercially available from Gelest) to a 20 ml vial. Sample 1 was prepared by inserting apiece of silicone elastomer (1.5 cm×2.5 cm, 0.35 g, commercially available from Gelest) into a 20 ml vial containing the solution and letting the vial sit with a closed lid for 30 minutes to absorb the solution into the elastomer. Sample 2 (control) was an identical piece of silicone elastomer which was inserted into a 20 ml vial containing hemp seed oil and let sit with a closed lid for 30 minutes to absorb the hemp oil into the elastomer.
Sample 1 was washed in water three consecutive times. For each wash, the sample was placed in a vial containing 10 g of DI water and shaken for 10 seconds. The water from each wash was collected and analyzed for the presence of CBD using a basic thin-layer chromatography (TLC) method using 20% ethyl acetate in hexanes. CBD isolate was compared to a hydrolyzed sample of trisiloxanyl-cannabidiol product (IV) as well as all three washes.

With `C=C(C)[C@@H]1CCC(C)=C[C@H]1c1c(O)cc(CCCCC)cc1O` [CBD, 2-[(1R,6R)-3-methyl-6-(1-methylethenyl)-2-cyclohexen-1-yl]-5-pentyl-1,3-benzenediol, reference compound], in data set [1] (all oils tested), the “Solubility in oils” value is recorded as “soluble”. Besides, the “Solubility in silicones” value in data set [1] (all silicones tested) is recorded as “insoluble”. Besides, the “Solubility in water” value in data set [1] (water) is listed as “insoluble”. For the molecule `CCCCCc1cc(O)c([C@H]2C=C(C)CC[C@H]2C(C)C[Si](C)(C)O[Si](C)(C)O[Si](C)(C)O[Si](C)(C)O[Si](C)(C)CCCC)c(O)c1` (stereo partly drawn) [Example 2, 2-[(1R,6R)-3-Methyl-6-(1-methyl-2-(1-butyl-1,1,3,3,5,5,7,7-octamethyltetrasiloxy-dimethylsilyl)ethyl)-2-cyclohexen-1-yl]-5-pentyl-1,3-benzenediol], the “Solubility in castor oil” value in data set [1] (castor oil, even with partial heating) is “only partially soluble”. In the case of `C=C(C)[C@@H]1CCC(C)=C[C@H]1c1c(O)cc(CCCCC)cc1O[Si](C)(O[Si](C)(C)C)O[Si](C)(C)C` [Example 3, 2-[(1R,6R)-3-Methyl-6-(1-methylethenyl)-2-cyclohexen-1-yl]-5-pentyl-1-(bis(trimethylsiloxy)methylsiloxy)-3-ol-benzene], the “Hydrolysis to release CBD (TLC)” value in data set [2] is given as “underwent hydrolysis to release CBD”.
